The text below walks through data of ChEMBL document CHEMBL2074407, “Identification of thyroid hormone transporters” (Biochem Biophys Res Commun, 1999).

The target in data set [1] is T1, Solute carrier organic anion transporter family member 1A1 (Rattus norvegicus, UniProt P46720).
T1 sequence (P46720 whole entry): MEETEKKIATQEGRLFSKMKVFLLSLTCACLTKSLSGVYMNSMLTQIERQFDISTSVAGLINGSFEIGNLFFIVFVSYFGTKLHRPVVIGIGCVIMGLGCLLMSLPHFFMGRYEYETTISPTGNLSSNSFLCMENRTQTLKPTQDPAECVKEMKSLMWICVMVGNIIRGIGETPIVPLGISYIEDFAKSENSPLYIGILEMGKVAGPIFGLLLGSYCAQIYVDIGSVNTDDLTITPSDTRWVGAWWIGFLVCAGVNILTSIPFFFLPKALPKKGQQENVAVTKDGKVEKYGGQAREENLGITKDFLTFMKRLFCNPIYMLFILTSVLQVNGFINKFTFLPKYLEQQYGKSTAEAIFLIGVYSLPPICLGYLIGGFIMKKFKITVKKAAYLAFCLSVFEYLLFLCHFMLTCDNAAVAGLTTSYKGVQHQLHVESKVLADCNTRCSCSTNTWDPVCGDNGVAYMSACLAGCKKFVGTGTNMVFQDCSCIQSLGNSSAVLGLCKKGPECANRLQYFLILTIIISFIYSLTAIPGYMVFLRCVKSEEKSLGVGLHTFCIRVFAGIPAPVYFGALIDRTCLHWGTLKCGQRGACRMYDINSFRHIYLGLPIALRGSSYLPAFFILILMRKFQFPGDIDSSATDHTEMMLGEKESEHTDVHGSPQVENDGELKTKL
Description: (§1) TP_TRANSPORTER: uptake in Xenopus laevis oocytes. It counts as functional, cell-based. The settings on record: oocyte.

Data set [2] concerns the target T2, Hepatic sodium/bile acid cotransporter (Rattus norvegicus, UniProt P26435).
T2 sequence (P26435 whole entry): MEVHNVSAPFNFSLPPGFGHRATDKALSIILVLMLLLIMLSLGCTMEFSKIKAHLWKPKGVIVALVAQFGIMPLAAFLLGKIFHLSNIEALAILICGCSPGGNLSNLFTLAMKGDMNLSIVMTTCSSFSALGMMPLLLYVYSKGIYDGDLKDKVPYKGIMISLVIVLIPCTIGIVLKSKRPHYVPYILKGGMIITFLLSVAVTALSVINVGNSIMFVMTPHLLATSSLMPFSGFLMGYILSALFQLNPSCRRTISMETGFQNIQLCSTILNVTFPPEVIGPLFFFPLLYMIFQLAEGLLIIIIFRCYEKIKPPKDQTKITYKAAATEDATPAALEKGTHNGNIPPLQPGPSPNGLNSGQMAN
The data set is described as §1. It counts as functional, cell-based. The settings on record: oocyte.

Where a name gives a salt, the structure may show the parent alone.

On to `NC(Cc1ccc(Oc2ccc(O)c(I)c2)c(I)c1)C(=O)O` (stereo not drawn) [DIIODOTHYRONINE], for which the Activity result in data set [1] and in data set [2] was “substrate [+]” in each case.
Regarding `N[C@@H](Cc1cc(I)c(Oc2ccc(O)c(I)c2)c(I)c1)C(=O)O` [LIOTHYRONINE], the Activity result in data set [1] and in data set [2] was “substrate [+]” in each case.
For `N[C@@H](Cc1ccc(Oc2cc(I)c(O)c(I)c2)c(I)c1)C(=O)O.O=S(=O)(O)O` [REVERSE TRIIODOTHYRONINE(RT3) SULFATE], the Activity result in data set [1] and in data set [2] was “substrate [+]” in each case.
For `N[C@@H](Cc1cc(I)c(Oc2cc(I)c(O)c(I)c2)c(I)c1)C(=O)O` [LEVOTHYROXINE], the Activity entry in data set [1] and in data set [2] was “substrate [+]” each time.
Consider `N[C@@H](Cc1ccc(Oc2cc(I)c(O)c(I)c2)c(I)c1)C(=O)O` [REVERSE TRIIODOTHYRONINE], for which the Activity entry in data set [1] and in data set [2] was “substrate [+]” in each case.
As for `NS(=O)(=O)O.N[C@@H](Cc1cc(I)c(Oc2ccc(O)c(I)c2)c(I)c1)C(=O)O` [TRIIODOTHYRONINE SULFAMATE], the Activity entry in data set [1] was “substrate [+]”.
For the compound `NC(Cc1ccc(Oc2ccc(OS(=O)(=O)O)c(I)c2)c(I)c1)C(=O)O` (stereo not drawn) [DIIODOTHYRONINE SULFATE], the Activity result in data set [1] and in data set [2] was “substrate [+]” throughout.
With `NS(=O)(=O)O.N[C@@H](Cc1cc(I)c(Oc2cc(I)c(O)c(I)c2)c(I)c1)C(=O)O` [THYROXINE SULFAMATE], in data set [1], the Activity result is “substrate [+]”.
Consider `NC(Cc1cc(I)c(Oc2cc(I)c(OS(=O)(=O)O)c(I)c2)c(I)c1)C(=O)O` (stereo not drawn) [THYROXINE SULFATE], for which the Activity entry in data set [1] and in data set [2] was “substrate [+]” each time.
Consider `N[C@@H](Cc1cc(I)c(Oc2ccc(OS(=O)(=O)O)c(I)c2)c(I)c1)C(=O)O` [TRIIODOTHYRONINE SULFATE], for which the Activity entry in data set [1] and in data set [2] was “substrate [+]” throughout.
